Target: T1, Ornithine decarboxylase (ODC) (Rattus norvegicus, UniProt P09057)
T1 construct: is prepared from the livers of rats which have been injected with thioacetamide; from tissue; host or cells: rat liver (thioacetamide-induced)
T1 sequence (P09057 1-461): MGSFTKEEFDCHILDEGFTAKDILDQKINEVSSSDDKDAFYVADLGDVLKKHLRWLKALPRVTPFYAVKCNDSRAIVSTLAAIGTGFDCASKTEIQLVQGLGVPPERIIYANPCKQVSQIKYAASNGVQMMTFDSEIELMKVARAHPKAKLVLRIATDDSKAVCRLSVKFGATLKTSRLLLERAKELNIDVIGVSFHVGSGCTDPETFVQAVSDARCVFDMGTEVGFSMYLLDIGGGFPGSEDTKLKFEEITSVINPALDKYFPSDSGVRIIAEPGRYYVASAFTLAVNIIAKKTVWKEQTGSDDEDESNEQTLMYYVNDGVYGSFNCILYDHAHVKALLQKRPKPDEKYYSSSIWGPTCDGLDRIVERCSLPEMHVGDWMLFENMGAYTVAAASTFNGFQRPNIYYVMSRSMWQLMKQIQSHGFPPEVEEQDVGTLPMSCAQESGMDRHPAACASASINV
Assay: In vitro time-dependent inhibition of ornithine decarboxylase (14CO2 release from DL-[1-14C]ornithine; Kitz and Wilson analysis)
Assay type: biochemical, rats
Conditions: calculated by method of Kitz and Wilson; for Ki: apparent dissociation constant, ODC from livers of thioacetamide-treated rats, incubated at 37°; for ODC τ50: half-life at infinite concentration of inhibitor, rat liver ODC, 37°
Method: The stock solution of ODC is composed of proteins (16 mg/mL), sodium phosphate buffer (30 mM, pH 7.1), dithiothreitol (5 mM) and pyridoxal phosphate (0.1 mM). The specific activity of this stock solution is 0.12 nmol of CO2/min per mg of protein. For a typical experiment 320 µl of this stock solution is mixed at time 0 with 80 µl of a solution of the inhibitor in water and incubated at 37°. At different times 50 pl aliquots are transferred into a 1 mL assay medium containing sodium phosphate (30 mM, pH 7.1), dithiothreitol (5 mM), pyridoxal phosphate (0.1 mM), L-ornithine (0.081 pmol), and DL-[1-^14C] ornithine (0.043 pmol, 58 Ci/mol, Amersham) in a closed vessel in which a filter paper moistered with 50 µl hyamine hydroxide (1 M) is fitted. The reaction is allowed to proceed for 60 min at 37°C and then terminated by addition of 0.5 ml of 40% trichloroacetic acid. After an additional 30 min, the CO2 absorbed on the filter paper is counted in a standard scintillation cocktail.

| SMILES | Ki | ODC τ50 |
| --- | --- | --- |
| NCC(=O)CC(N)(CF)C(=O)O (stereo not shown) [A, 2-fluoromethyl-2,5-diamino-4-oxo-pentanoic acid] | 4.8 µM | 3.1 min |
| C=C(CN)CC(N)CF (stereo not shown) [B, 1-fluoro-2,5-diamino-4-methylene-pentane] |  | 2.6 min |
| NCC(=O)CC(N)CF (stereo not shown) [C, 1-fluoro-2,5-diamino-4-oxo-pentane] |  | 1.6 min |
| C=C(CN)CC(N)(CF)C(=O)O (stereo not shown) [D, 2-fluoromethyl-2,5-diamino-4-methylene-pentanoic acid] | 53 µM | 3.6 min |
| C=C(CN)CC(N)C(F)F (stereo not shown) [E, 1,1-difluoro-2,5-diamino-4-methylene-pentane] |  | 2.2 min |
